pIC50: −log10 of the molar value. Counter-ions that a name gives are not always drawn.
Tests used:
DYRK1B = biological target: T1, DYRK1B (Homo sapiens, UniProt Q9Y463); assay: DYRK1B in vitro kinase assay (ADP-Glo); format: biochemical; details: ADP-Glo assay, ATP 15 μM (Km), substrate 7 μM, enzyme 1 nM or 0.3 nM, 1 h, rt; read-out: DYRK1B IC50
T1 construct: purchased Carna Bioscence (Carna Biosciences) 04-131
Method: The compounds of the present invention were tested for their inhibitory activity against DYRK1A and DYRK1B kinases once or several times. When tested more than once, the data are reported herein as average value, wherein the average value, also referred to as the mean value, represents the sum of obtained values divided by the number of times tested. DYRK-inhibitory activity of the compounds of the present invention was tested using the ADP-Glo™ assay as described in the following paragraphs. The procedure for determining the IC50 values with the ADP-Glo™ assay in in vitro kinase assays consists of two parts: […] Kinase reaction performed under optimized conditions; 2. Detection of ADP as a product of the reaction using ADP-Glo™ system (Promega). The tested compounds indicated in Table 5 below were dissolved in DMSO, then transferred to the V-bottom PP plate to perform nine serial dilutions (in order to obtain dose-response curves) in 25% DMSO, as indicated in Table 5 below. The optimized conditions for performing DYRK1B in vitro kinase assay were as follows: [table] For compound testing, the following protocol was used: two mixes were prepared on ice, Mix 1 containing substrate, ATP and reaction buffer and Mix 2 containing reaction buffer and the kinase. 15 μL per well of Mix 1 was transferred to wells of a 96-well plate. […] Total reaction volume was 30 μL per well. The experiment was performed in duplicate for each data point being examined. Dose response curve for the positive control was carried out on each assay plate by adding the reference inhibitory compound staurosporine. For each test, three controls were also included: (i) 30 μL of the reaction mixture containing: reaction buffer, ATP, kinase, DMSO without substrate (quasi-positive control); (ii) 30 μL of the reaction mixture containing reaction buffer, substrate, ATP, DMSO without kinase (background control); (iii) 30 μL of the reaction mixture containing reaction buffer, substrate, kinase, ATP, DMSO (vehicle control). Final concentration of DMSO in the reaction was 2%. To detect the ADP amount produced during the kinase reaction, the commercially available kit ADP-Glo™ Kinase Assay (Promega, cat. No # V9103) was used. The protocol used for the detection was based on the Technical Bulletin of the ADP-Glo™ Kinase Assay (Promega) and was adapted to 96-well plate containing 30 μL reaction mixture as explained below. 30 μL of ADP-Glo™ Reagent was added to each well of a 96 well plate containing 30 μL of reaction mixture to terminate the kinase reaction and deplete the remaining ATP. The plate was incubated for 60 minutes on a shaker at rt. 60 μL of Kinase Detection Solution was then added to each well of 96-well plate containing 60 μL of the solution to convert ADP to ATP and to allow the newly synthesized ATP to be measured using a luciferase/luciferin reaction (ratio of kinase reaction volume to ADP Glo™ Reagent volume to Kinase Detection Solution volume was maintained at 1:1:2). The plate was incubated for 40 minutes on a shaker at rt, protected from light. Luminescence was measured in the plate reader, wherein the luminescent signal is proportional to the ADP concentration produced and thus correlates with kinase activity. After data normalization to controls (complete reaction mix and no-substrate control) and transforming X values (test compound concentrations) using: X=log(X), IC50 values were determined, using the GraphPad Prism 6.0 [log(agonist) vs. normalized response—Variable slope].

DYRK1A = biological target: T2, DYRK1A (Homo sapiens, UniProt Q13627); assay: DYRK1A in vitro kinase assay (ADP-Glo); format: biochemical; details: ATP 70 μM (Km), substrate 3 μM, enzyme 2 nM or 0.7 nM, 30 min, rt
T2 construct: purchased Carna Bioscence (Carna Biosciences) 04-130
Method: The compounds of the present invention were tested for their inhibitory activity against DYRK1A and DYRK1B kinases once or several times. When tested more than once, the data are reported herein as average value, wherein the average value, also referred to as the mean value, represents the sum of obtained values divided by the number of times tested.
DYRK-inhibitory activity of the compounds of the present invention was tested using the ADP-Glo™ assay as described in the following paragraphs. The procedure for determining the IC50 values with the ADP-Glo™ assay in in vitro kinase assays consists of two parts:
1. Kinase reaction performed under optimized conditions;
2. Detection of ADP as a product of the reaction using ADP-Glo™ system (Promega).
The tested compounds indicated in Table 5 below were dissolved in DMSO, then transferred to the V-bottom PP plate to perform nine serial dilutions (in order to obtain dose-response curves) in 25% DMSO, as indicated in Table 5 below.
The optimized conditions for performing DYRK1A in vitro kinase assay were as follows:
For compound testing, the following protocol was used: two mixes were prepared on ice, Mix 1 containing substrate, ATP and reaction buffer and Mix 2 containing reaction buffer and the kinase. 15 μL per well of Mix 1 was transferred to wells of a 96-well plate. Next, 2.5 μL of the pre-diluted compound to be tested was added to Mix 1, followed by the addition of 12.5 μL of Mix 2. Total reaction volume was 30 μL per well. The experiment was performed in duplicate for each data point being examined. Dose response curve for the positive control was carried out on each assay plate by adding the reference inhibitory compound staurosporine. For each test, three controls were also included: (i) 30 μL of the reaction mixture containing: reaction buffer, ATP, kinase, DMSO without substrate (quasi-positive control); (ii) 30 μL of the reaction mixture containing reaction buffer, substrate, ATP, DMSO without kinase (background control); (iii) 30 μL of the reaction mixture containing reaction buffer, substrate, kinase, ATP, DMSO (vehicle control). Final concentration of DMSO in the reaction was 2%. To detect the ADP amount produced during the kinase reaction, the commercially available kit ADP-Glo™ Kinase Assay (Promega, cat. No # V9103) was used. The protocol used for the detection was based on the Technical Bulletin of the ADP-Glo™ Kinase Assay (Promega) and was adapted to 96-well plate containing 30 μL reaction mixture as explained below.
30 μL of ADP-Glo™ Reagent was added to each well of a 96 well plate containing 30 μL of reaction mixture to terminate the kinase reaction and deplete the remaining ATP. The plate was incubated for 60 minutes on a shaker at rt. 60 μL of Kinase Detection Solution was then added to each well of 96-well plate containing 60 μL of the solution to convert ADP to ATP and to allow the newly synthesized ATP to be measured using a luciferase/luciferin reaction (ratio of kinase reaction volume to ADP Glo™ Reagent volume to Kinase Detection Solution volume was maintained at 1:1:2). The plate was incubated for 40 minutes on a shaker at rt, protected from light. Luminescence was measured in the plate reader, wherein the luminescent signal is proportional to the ADP concentration produced and thus correlates with kinase activity.
After data normalization to controls (complete reaction mix and no-substrate control) and transforming X values (test compound concentrations) using: X=log(X), IC50 values were determined, using the GraphPad Prism 6.0 [log(agonist) vs. normalized response—Variable slope].

T1 sequence (Q9Y463 whole entry): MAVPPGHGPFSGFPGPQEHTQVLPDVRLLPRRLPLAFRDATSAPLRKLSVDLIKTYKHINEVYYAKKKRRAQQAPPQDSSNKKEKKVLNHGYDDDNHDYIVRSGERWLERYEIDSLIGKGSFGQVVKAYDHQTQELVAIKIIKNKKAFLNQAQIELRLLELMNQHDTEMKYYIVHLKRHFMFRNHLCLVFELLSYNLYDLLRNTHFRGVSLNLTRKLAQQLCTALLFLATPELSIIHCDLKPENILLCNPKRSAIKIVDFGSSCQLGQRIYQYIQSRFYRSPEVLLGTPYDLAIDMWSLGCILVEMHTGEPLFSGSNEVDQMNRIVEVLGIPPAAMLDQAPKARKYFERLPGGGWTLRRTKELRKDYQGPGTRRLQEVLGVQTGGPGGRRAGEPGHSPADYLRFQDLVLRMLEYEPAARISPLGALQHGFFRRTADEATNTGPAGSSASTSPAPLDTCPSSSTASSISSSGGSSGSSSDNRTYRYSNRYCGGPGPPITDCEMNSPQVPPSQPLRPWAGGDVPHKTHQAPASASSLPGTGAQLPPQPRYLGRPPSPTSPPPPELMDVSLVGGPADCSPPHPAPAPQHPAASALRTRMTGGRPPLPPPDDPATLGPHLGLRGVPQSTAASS

## O=C(NCc1cccnc1)c1cnc2[nH]cc(-c3cc(F)c4nccc(-c5cccnc5)c4c3)c2c1 [Example 47, 3-[8-Fluoro-4-(pyridin-3-yl)quinolin-6-yl]-N-(pyridin-3-ylmethyl)-1H-pyrrolo[2,3-b]pyridine-5-carboxamide]
DYRK1B
  pIC50: > 8.00
DYRK1A
  pIC50: > 8.00

## NCCCNC(=O)c1cnc2[nH]cc(-c3cc(Cl)c4ncccc4c3)c2c1 [Example 34, N-(3-Aminopropyl)-3-(8-chloroquinolin-6-yl)-1H-pyrrolo[2,3-b]pyridine-5-carboxamide hydrochloride]
DYRK1B
  pIC50: > 8.00
DYRK1A
  pIC50: > 8.00

## CNC(=O)c1cnc2[nH]cc(-c3ccc4nccc(Cl)c4c3)c2c1 [Example 24, 3-(4-Chloroquinolin-6-yl)-N-methyl-1H-pyrrolo[2,3-b]pyridine-5-carboxamide]
DYRK1B
  pIC50: > 8.00
DYRK1A
  pIC50: > 8.00

## Nc1cnc2ccc(-c3c[nH]c4ncc(C(=O)NCc5cccnc5)cc34)cc2c1 [Example 61, 3-(3-Aminoquinolin-6-yl)-N-(pyridin-3-ylmethyl)-1H-pyrrolo[2,3-b]pyridine-5-carboxamide]
DYRK1B
  pIC50: > 8.00
DYRK1A
  pIC50: > 8.00

## CNC(=O)c1cnc2[nH]cc(-c3ccc4ncc(NCC5CCOCC5)c(N5CCOCC5)c4c3)c2c1 [Example 58, N-Methyl-3-[4-(morpholin-4-yl)-3-[(oxan-4-ylmethyl)amino]quinolin-6-yl]-1H-pyrrolo[2,3-b]pyridine-5-carboxamide]
DYRK1B
  pIC50: > 8.00
DYRK1A
  pIC50: 7.00 to 8.00

## N[C@@H]1CCCN(c2ccnc3c(F)cc(-c4c[nH]c5ncc(CNCc6ccccc6)cc45)cc23)C1 [Example 51, (3R)-1-(6-{5-[(Benzylamino)methyl]-1H-pyrrolo[2,3-b]pyridin-3-yl}-8-fluoroquinolin-4-yl)piperidin-3-amine]
DYRK1B
  pIC50: > 8.00
DYRK1A
  pIC50: > 8.00

## C=CCCCc1ccnc2ccc(-c3c[nH]c4ncc(CN(C)CC=C)cc34)cc12 [Example 21, Methyl({3-[4-(pent-4-en-1-yl)quinolin-6-yl]-1H-pyrrolo[2,3-b]pyridin-5-yl}methyl)(prop-2-en-1-yl)amine]
DYRK1B
  pIC50: > 8.00
DYRK1A
  pIC50: 7.00 to 8.00

## C=CCN(C)C(=O)c1cnc2[nH]cc(-c3cc(F)c4nccc(-c5cccnc5)c4c3)c2c1 [Example 38, 3-[8-Fluoro-4-(pyridin-3-yl)quinolin-6-yl]-N-methyl-N-(prop-2-en-1-yl)-1H-pyrrolo[2,3-b]pyridine-5-carboxamide]
DYRK1B
  pIC50: > 8.00
DYRK1A
  pIC50: 7.00 to 8.00

## CNC(=O)c1cnc2[nH]cc(-c3ccc4ncccc4c3)c2c1 [Example 25, N-Methyl-3-(quinolin-6-yl)-1H-pyrrolo[2,3-b]pyridine-5-carboxamide]
DYRK1B
  pIC50: > 8.00
DYRK1A
  pIC50: > 8.00

## CNC(=O)c1cnc2[nH]cc(-c3cc(F)c4nccc(CCc5ccccc5)c4c3)c2c1 [Example 40, 3-[8-Fluoro-4-(2-phenylethyl)quinolin-6-yl]-N-methyl-1H-pyrrolo[2,3-b]pyridine-5-carboxamide]
DYRK1B
  pIC50: > 8.00
DYRK1A
  pIC50: > 8.00

## CC(=O)Nc1cnc2ccc(-c3c[nH]c4ncc(C(=O)NCc5cccnc5)cc34)cc2c1 [Example 62, 3-(3-Acetamidoquinolin-6-yl)-N-(pyridin-3-ylmethyl)-1H-pyrrolo[2,3-b]pyridine-5-carboxamide]
DYRK1B
  pIC50: > 8.00
DYRK1A
  pIC50: > 8.00

## CC(=O)Nc1cnc2[nH]cc(-c3cc(F)c4nccc(-c5cccnc5)c4c3)c2c1 [Example 46, N-{3-[8-Fluoro-4-(pyridin-3-yl)quinolin-6-yl]-1H-pyrrolo[2,3-b]pyridin-5-yl}acetamide]
DYRK1B
  pIC50: > 8.00
DYRK1A
  pIC50: > 8.00

## C=CCN(C)Cc1cnc2[nH]cc(-c3cc(F)c4nccc(-c5cccnc5)c4c3)c2c1 [Example 52, ({3-[8-Fluoro-4-(pyridin-3-yl)quinolin-6-yl]-1H-pyrrolo[2,3-b]pyridin-5-yl}methyl)(methyl)(prop-2-en-1-yl)amine]
DYRK1B
  pIC50: > 8.00
DYRK1A
  pIC50: 7.00 to 8.00

## COc1cc(-c2c[nH]c3ncc(C(N)=O)cc23)cc2c(-c3cccnc3)ccnc12 [Example 45, 3-[8-Methoxy-4-(pyridin-3-yl)quinolin-6-yl]-1H-pyrrolo[2,3-b]pyridine-5-carboxamide]
DYRK1B
  pIC50: 7.00 to 8.00
DYRK1A
  pIC50: < 7.00

## C=CCN(C)C(=O)c1cnc2[nH]cc(-c3cc(F)c4ncccc4c3)c2c1 [Example 27, 3-(8-Fluoroquinolin-6-yl)-N-methyl-N-(prop-2-en-1-yl)-1H-pyrrolo[2,3-b]pyridine-5-carboxamide]
DYRK1B
  pIC50: > 8.00
DYRK1A
  pIC50: > 8.00

## c1cncc(-c2ccnc3ccc(-c4c[nH]c5ncccc45)cc23)c1 [Example 6, 4-(Pyridin-3-yl)-6-{1H-pyrrolo[2,3-b]pyridin-3-yl}quinoline]
DYRK1B
  pIC50: > 8.00
DYRK1A
  pIC50: > 8.00

## Fc1cc(-c2c[nH]c3ncccc23)cc2c(-c3cccnc3)ccnc12 [Example 19, 8-Fluoro-4-(pyridin-3-yl)-6-{1H-pyrrolo[2,3-b]pyridin-3-yl}quinoline]
DYRK1B
  pIC50: > 8.00
DYRK1A
  pIC50: > 8.00

## NCCCNC(=O)c1cnc2[nH]cc(-c3cc(F)c4nccc(-c5cccnc5)c4c3)c2c1 [Example 37, N-(3-Aminopropyl)-3-[8-fluoro-4-(pyridin-3-yl)quinolin-6-yl]-1H-pyrrolo[2,3-b]pyridine-5-carboxamide hydrochloride]
DYRK1B
  pIC50: > 8.00
DYRK1A
  pIC50: > 8.00

Reference: patent US10577365B2, “Derivatives of quinoline as inhibitors of DYRK1A and/or DYRK1B kinases” (Felicitex Therapeutics, Inc., priority 2016, dated 2020)
